Data reported in paper PMC5905120, “An innovative immunotherapeutic strategy for ovarian cancer: CLEC10A and glycomimetic peptides” (Journal for Immunotherapy of Cancer, 2018).
Bridges are numbered along the chain shown (N, C = ends). Roman numbers before positions name the chains, in order. Where no end group is shown, it is not given here.

How the values were obtained:
human CLEC10A = molecular target: T1, human CLEC10A (Homo sapiens, UniProt Q8IUN9); assay: Solid-phase binding to recombinant human CLEC10A; conditions: Fig. 2a, representative of 3 independent experiments
T1 construct: purchased R&D Systems
T1 sequence (Q8IUN9 61-316 limits assumed): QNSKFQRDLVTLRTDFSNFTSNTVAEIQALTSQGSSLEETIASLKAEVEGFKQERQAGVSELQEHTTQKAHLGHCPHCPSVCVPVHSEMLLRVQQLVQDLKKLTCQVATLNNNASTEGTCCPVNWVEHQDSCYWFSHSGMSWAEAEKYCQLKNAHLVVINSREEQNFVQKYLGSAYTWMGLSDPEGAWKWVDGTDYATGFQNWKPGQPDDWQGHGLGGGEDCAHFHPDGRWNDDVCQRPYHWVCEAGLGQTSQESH
Method: (§1) Solid-phase binding assays were performed with streptavidin-, protein A/G-, or Nickel-coated microtiter plates (Pierce). His-tagged or Fc-fusion recombinant receptors (R&D Systems, Minneapolis, MN) were reconstituted in PBS. Sufficient receptors were added to wells to saturate the coating. His-tagged receptors were added to each well at a 5-fold excess over the stated capacity of the Ni coating to minimize non-specific binding of the peptide. Wells were washed three times with binding buffer (25 mM Tris HCl, pH 7.4, 150 mM NaCl, 0.05% Tween-20) to remove unbound receptor and 50 μL of 2 μM biotinylated peptide in binding buffer were added and allowed to incubate for 1 h. The wells were washed four times with binding buffer and then incubated with 50 μL of 1 μg/mL streptavidin conjugated with peroxidase (Sigma-Aldrich) for 1 h. The wells were washed five times with binding buffer and 50 μL of peroxidase substrate (1-Step™ Ultra TMB, Pierce) were added. After several minutes to allow color development, the reaction was stopped with 50 μL 1 M H3PO4 and absorbance was measured at 450 nm. Bound streptavidin was quantitated by the specific activity of peroxidase (absorbance/ng protein conjugate/min) under the conditions of the assay.
Solid-phase binding assays were performed with recombinant human receptors. Three variations of the binding assay were used in this study, all of which allowed the arms of the tetravalent peptide to have full flexibility. (i) Biotinylated peptide was bound in microtiter wells coated with streptavidin and incubated with recombinant human receptors. After extensive washing, the bound receptor was measured by peroxidase conjugated to a receptor-specific antibody. (ii) The extracellular domains of receptors, which were fused with the Fc domain of immunoglobulin IgG, were bound in wells coated with protein A/G. Biotinylated peptide was incubated with the receptors and, after extensive washing, bound peptide was measured with streptavidin conjugated with peroxidase. Or (iii), recombinant receptors with a poly-His tag were bound to Nickel-coated wells and incubated with biotinylated peptide. svL4 and sv6D contain His residues (see Table 1) and can bind to the Ni coating, which was minimized by adding sufficient poly-His-tagged receptor to saturate the Ni coating.

Siglec-1 = assay: Solid-phase binding to Siglec-1; set-up: species or system human; conditions: Fig. 2b
Method: as §1, with “The wells were washed five times with binding buffer and 50 μL of peroxidase substrate (1-Step™ Ultra TMB, Pierce) were added.” left out
Solid-phase binding assays were performed with recombinant human receptors. […] After extensive washing, the bound receptor was measured by peroxidase conjugated to a receptor-specific antibody. […]

[1] = test system: monocytes in the peritoneal cavity of RAG^—/— mice; assay: Peritoneal monocyte response in RAG^—/— mice; format: in vivo, mouse (RAG^—/—); conditions: s.c. injection (data not shown)
Method: To determine whether the target(s) for svL4 is located on lymphocytes, with subsequent cross-talk signaling to achieve activation of monocytes, an experiment was performed in which svL4 was injected into RAG^—/— mice, which lack activity of rag, the recombination activation gene. The ability to perform recombination to generate antigen-specific antibodies by V(D)J recombination is required for B and T cell precursors to produce functional antigen receptors on their surface, and without a functional rag gene these cells undergo apoptosis.

**Q.** What does the source list for “I: VQATQSNQHTPRGGGSKK-NH2 / II: VQATQSNQHTPRGGGSK / III: VQATQSNQHTPRGGGS / IV: VQATQSNQHTPRGGGS (amide I:17-IV:C, I:18-II:C, II:17-III:C) [svL4]”?
**A.** binding to CLEC10A (human CLEC10A): bound to CLEC10A; binding to Siglec-1 (Siglec-1): did not bind significantly; response of peritoneal monocytes vs. C57BL/6 [1]: essentially the same as that in C57BL/6 mice
